In PubChem BioAssay (NCI):
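Five compound concentrations were applied to cells in 96-well plates for 48 hours; endpoints were derived by simple linear interpolation of the resulting dose-response curve. Abbreviation: GI50, concentration required for 50% inhibition of growth. TGI is the concentration that stops growth completely.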

Tested on: A549 NSCLC
Experiment: NCI tumour cell line growth inhibition, 48 h

| SMILES | TGI | GI50 |
| --- | --- | --- |
| O=C1CCN2C(=O)CCN12 | > 100 µM | – |
| Cc1ccc(C(=O)CN(/C=C/C(=O)C(F)(F)F)c2ccc(S(N)(=O)=O)cc2)cc1 | > 100 µM | 63.5 µM |
| Clc1nc(Cl)c(Cl)c(-c2ccccc2)n1 | 27.9 µM | – |
| CC1CC[C@]2(C(=O)O)CCC3(C)C(=CC(=O)C4[C@@]5(C)CCC(=O)C(C)(C)C5CC[C@]43C)[C@@H]2[C@H]1C (stereo partly specified) | > 100 µM | – |
| CC(C)C(Nc1c2ccccc2nc2ccccc12)C(=O)O (stereo unspecified) | > 100 µM | – |
| COc1ccccc1CCc1cc(OC)c(OC)c(OC)c1 | > 100 µM | – |
| COc1cc2c(cc1OC)C(CC(=O)NN=C(C)C)NCC2 (stereo unspecified) | > 100 µM | – |
| COC(=O)/C(=N\Nc1nnc(C)n1N)C(C#N)c1ccc(Cl)cc1 (stereo unspecified) | > 100 µM | – |
| Cc1cccc(NC(=O)C(=O)C(C(=O)c2ccc3ccccc3c2)C2OC(=O)c3ccccc32)c1C (stereo unspecified) | 69.2 µM | – |
| CS/C(N)=N\NC(=O)CCC(=O)Nc1ccccc1C(F)(F)F | > 100 µM | – |
| CC(C)(C)c1ccc2c(c1)S(=O)(=O)Nc1ccccc1NS(=O)(=O)c1cc(C(C)(C)C)ccc1OCCOCCOCCO2 | > 100 µM | – |
| COc1cc(/C=C/c2cc(/C=C/c3ccc(O)c(OC)c3)n(C(=O)Nc3ccc(F)c(Cl)c3)n2)ccc1O | 3.47 µM | 0.387 µM |
| CC(=O)[O-].CCN(CC)c1ccc(C=NCCN=Cc2ccc(N(CC)CC)cc2[O-])c([O-])c1.[Mn+3] | > 100 µM | 34.5 µM |
| Clc1ccc(C2=Nn3c(COc4ccccc4Cl)nnc3SC2)c(Cl)c1 | > 100 µM | 23.6 µM |
| COc1cc2c3c(n(CCCNC(=O)OCC4c5ccccc5-c5ccccc54)c(=O)c2cc1OC)-c1cc2c(cc1/C3=C\CCNC(=O)OCC1c3ccccc3-c3ccccc31)OCO2 | > 50 µM | > 26.6 µM |
| NC(N)=N/N=C(\c1nc2ccc([N+](=O)[O-])cc2[nH]c1=O)C(O)c1ccc([N+](=O)[O-])cc1 (stereo unspecified) | > 100 µM | – |
| CCC[CH2][Sn]1([CH2]CCC)[O]CC(CN2CCCC2)[O]1 (stereo unspecified) | > 100 µM | 47.2 µM |
| CC1(C)C(=O)N(CCCCCCN2C(=O)C(C)(C)c3ccccc32)c2ccccc21 | > 100 µM | – |
| NCCCCN(CCCN)/[N+]([O-])=N\O | > 100 µM | – |
| CCOc1ccccc1NC(=O)CC(C(=O)OC)C(=O)C(=O)OC (stereo unspecified) | > 100 µM | – |
| C[C@@]12CC=C3c4nc(Nc5cccc(O)c5)sc4CC[C@]3(C)[C@H]1CC[C@]1(C)C(=O)CC[C@@H]21 | > 100 µM | 4.6 µM |
| CN1C(=O)c2cccc3cc([N+](=O)[O-])cc(c23)C1=O | > 10 µM | – |
| COC(=O)C1=C(C)N(NC(=O)OC(C)(C)C)C(=O)C1=P(c1ccccc1)(c1ccccc1)c1ccccc1 | > 100 µM | – |
| O=C1OC(c2ccccc2)=N/C1=C\c1cccc2ccccc12 | > 100 µM | – |
| Cc1cccc(NC(=O)/C(=N\NC(C)(C)C)C2NC(=S)NC2=O)c1C (stereo unspecified) | > 100 µM | – |
| C[C@@H]1CC(=O)C2CCCC1C2=O (stereo partly specified) | > 100 µM | – |
| c1ccc(CNn2nnc3ccccc32)cc1 | > 100 µM | – |

Tested on: K-562 leukemia
Experiment: NCI tumour cell line growth inhibition, 48 h

| SMILES | TGI | GI50 |
| --- | --- | --- |
| Cc1nc(N)sc1C(=O)/C=C\c1ccc2c(c1)OCO2 | > 100 µM | – |
| COc1cc(C(C)O)c[n+](CCc2c[nH]c3ccccc23)c1 (stereo unspecified) | > 100 µM | – |
| CC1(C)SCc2nc3ncccc3n21 | > 100 µM | – |
| Cn1c(=O)c(C(c2ccc([N+](=O)[O-])cc2)c2c(O)c3ccccc3n(C)c2=O)cc2ccccc21 (stereo unspecified) | > 100 µM | – |
| Cc1cn(C2CC(O)C(CO)O2)c(=O)n2nnnc12 (stereo unspecified) | > 100 µM | – |
| COc1ccc(C(=O)C(C(=O)CCC(=O)Nc2cccc(Cl)c2)c2ccc(OC)cc2)cc1 (stereo unspecified) | > 100 µM | – |
| CCOC(=O)C1=C(C)N(NC(=O)Nc2ccccc2)C(=O)C1=P(c1ccccc1)(c1ccccc1)c1ccccc1 | > 100 µM | – |
| COc1cc(C=C2C(=O)NC(=O)NC2=O)cc(OC)c1OC | > 100 µM | – |
| Nn1c(=O)n(Cc2ccccc2)n(-c2ccccc2)c1=O | > 100 µM | – |
| NCC1Nc2ccccc2[C@@H](O)C1O (stereo partly specified) | > 100 µM | – |
| Cc1cccc(N2CCN(C(=S)c3ccc4c(c3)OCO4)CC2)c1 | > 100 µM | 0.521 µM |
| Cc1cc(C(=O)Nc2ncc(Cc3cccc(C(F)(F)F)c3)s2)c2ccccc2n1 | > 100 µM | 0.0458 µM |
| Cc1ccc(C2=C(c3ccccc3)C(Br)(c3ccc(C)cc3)C(c3ccccc3)=C2c2ccc(C)cc2)cc1 | > 100 µM | – |
| N#CCN1C(=O)c2cccc3cc([N+](=O)[O-])cc(c23)C1=O | > 100 µM | – |
| O=C1CCN2C(=O)CCN12 | > 100 µM | – |
